Results on seven compounds are retold here after paper PMC3236098 (Bioorganic & medicinal chemistry, 2011).

The conditions of test [1]: cited from earlier work; for excitation in humans: doses of 100 mg (or greater).
Test [2] deals with rTAAR1. Conditions: read-out: EC50 Rat TAAR1; cited from earlier work.
Test [3] has as its system DAT. Conditions: read-out: EC50 in rat synaptosomes; reference not given; cited from earlier work.
Test [4] relates to mTAAR1. The note with it: read-out: EC50 Mouse TAAR1; cited from earlier work.
For test [5], the target named is T1, hTAAR1 (Homo sapiens, UniProt Q96RJ0).
T1 sequence (Q96RJ0 1-339): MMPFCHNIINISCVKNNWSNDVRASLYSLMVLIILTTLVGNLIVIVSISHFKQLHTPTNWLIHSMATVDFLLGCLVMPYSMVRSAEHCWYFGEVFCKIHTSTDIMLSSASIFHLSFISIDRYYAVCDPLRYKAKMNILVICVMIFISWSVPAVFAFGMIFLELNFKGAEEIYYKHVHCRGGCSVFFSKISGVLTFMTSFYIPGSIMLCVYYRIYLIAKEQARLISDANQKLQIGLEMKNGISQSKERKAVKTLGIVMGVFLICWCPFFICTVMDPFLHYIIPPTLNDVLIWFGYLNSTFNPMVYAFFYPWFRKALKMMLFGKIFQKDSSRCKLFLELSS
The class given is cell-based.

Regarding `C[C@H](N)Cc1ccc2c(c1)OCO2` [(S)-3, (S)-3,4-methylenedioxyamphetamine], the excitation in humans entry in test [1] is “excitation”.

In the case of `COc1cc(C[C@H](C)N)c(OC)cc1Br` [(S)-7, (S)-4-bromo-2,5-dimethoxyamphetamine], in test [1] (doses of 0.5–1.0 mg), the effect in humans result is recorded as “no effect”.

In the case of `C[C@H](N)Cc1ccccc1` [(S)-1, (S)-amphetamine], the EC50 was 1200 ± 70 nM in test [2], […] in test [3] and 2 ± 1 nM in test [4].

As for `C[C@H](N)Cc1cccc(C(F)(F)F)c1` [(S)-6, (S)-norfenfluramine], the “EC50 Human, potency to activate TAAR1” value in test [5] is “active ^*”.

Consider `CN[C@@H](C)Cc1ccc2c(c1)OCO2` [(S)-4, (S)-3,4-methylenedioxymethamphetamine], for which the excitation in humans entry in test [1] is given as “excitation”.

For the compound `COc1cc(C[C@H](C)N)c(OC)cc1C` [(S)-8, (S)-4-methyl-2,5-dimethoxyamphetamine], the “agonist activity at hTAAR1 (in words)” value in test [5] is “lack of observed agonist activity”.

With `C[C@@H](N)Cc1ccccc1` [(R)-1, (R)-amphetamine], the EC50 in test [2] is 1400 ± 600 nM; in test [4] it was 65 ± 53 nM.

What is called EC50 is the concentration giving half of the maximal effect.
